Data taken from US8557805B2, “Fused ring compound and use thereof” (Takeda Pharmaceutical Company Limited, priority 2008, dated 2013).

Experiments:
[1] = target: T1, human liver GK (GST-hLGK1) (Homo sapiens, UniProt P35557); assay: Determination of GK activity value (Mant-ATP to Mant-ADP conversion, capillary electrophoresis); type: biochemical; settings: reaction started with 25 mM D-glucose solution, 37° C., 60 min, concentration at midpoint between maximum activity value and control group activity value
T1 construct: with a BamHI site added to immediately before the initiation codon; made in house; host or cells: Escherichia coli BL21 (Stratagene), plasmid pGEX6P-2/hLGK1
T1 sequence (P35557 1-464 isoform P35557-3): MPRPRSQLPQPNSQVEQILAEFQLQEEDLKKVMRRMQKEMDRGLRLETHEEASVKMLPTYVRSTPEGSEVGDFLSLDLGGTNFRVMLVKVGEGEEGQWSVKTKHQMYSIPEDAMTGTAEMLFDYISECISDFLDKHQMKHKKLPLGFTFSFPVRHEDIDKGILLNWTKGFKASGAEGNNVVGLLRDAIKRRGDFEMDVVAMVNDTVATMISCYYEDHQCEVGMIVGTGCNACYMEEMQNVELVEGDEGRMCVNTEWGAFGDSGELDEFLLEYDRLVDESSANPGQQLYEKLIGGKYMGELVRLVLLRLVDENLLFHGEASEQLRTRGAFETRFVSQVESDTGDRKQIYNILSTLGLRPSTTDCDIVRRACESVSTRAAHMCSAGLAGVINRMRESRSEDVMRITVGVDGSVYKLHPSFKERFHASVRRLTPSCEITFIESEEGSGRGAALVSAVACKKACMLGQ
Description: Plasmid DNA to be used for the expression of a protein (GST-hLGK1) containing GST (Glutathione S-transferase) added to the amino terminal of human liver GK in Escherichia coli was prepared as follows.
First, PCR was performed using human liver cDNA (Marathon Ready cDNA, Clontech Laboratories, Inc.) as a template and two kinds of synthetic DNAs (5′-[…]-3′ (SEQ ID NO: 1) and 5′-[…]-3′ (SEQ ID NO: 2)), and the obtained DNA fragment was closed using a TOPO TA Cloning Kit (Invitrogen Corporation). PCR was performed using the obtained plasmid DNA as a template and a synthetic DNA (5′-[…] CAGAG-3′ (SEQ ID NO: 3)) with a BamHI site added to immediately before the initiation codon, and a synthetic DNA (5′-[…]-3′ (SEQ ID NO: 4)) with an EcoRI site added to immediately after the stop codon. The obtained DNA fragment was subcloned to pGEX6P-2 (Amersham Biosciences K.K.) cleaved with BamHI and EcoRI to give a plasmid (pGEX6P-2/hLGK1) for expression of human liver GK.
BL21 strain (Stratagene) transformed with pGEX6P-2/hLGK1 obtained in (1) was cultured with shaking at 37° C. for 14 hr in a 200 ml Erlenmeyer flask containing 50 ml of 100 μg/ml ampicillin-containing LB medium. The culture medium (25 ml) was diluted with 225 ml of 100 μg/ml ampicillin-containing LB medium, and further cultured with shaking at 37° C. for 1 hr in a 1 L Erlenmeyer flask. After culture, the Erlenmeyer flask was cooled on ice, 125 μL of 100 mM isopropyl-thio-β-D-galactopyranoside (IPTG) was added (final concentration 50 μM), and cultured at 17° C. for 20 hr. The culture medium was centrifuged, and the obtained fungus was disrupted by ultrasonication. The object protein (GST-hLGK1) was purified from the supernatant using Glutathione Sepharose 4B (Amersham Biosciences K.K.).
A solution (5 μL) of test compound in 50% dimethyl sulfoxide was added to each well of 384 well black plate (Nalge Nunc International K.K.). Then, a solution (35 μL) obtained by diluting GST-hLGK1 obtained in (2) with measurement buffer (containing 50 mM HEPES (pH 7.4), 200 mM KCl, 5 mM MgCl2, 2.5 mM DTT and 50 μM 2′-(or-3′)-O—(N-methylanthraniloyl)adenosine 5′-triphosphate (Mant-ATP) (Jena Bioscience GmbH)) to 6 μg/mL was added to each well.
Each well was stood at 37° C. for 10 min, and 25 mM D-glucose solution (10 μL) was added to start the reaction.
Each well after the reaction was stood at 37° C. for 60 min, and the reaction was quenched by adding 25 μL of a quenching solution (containing 200 mM HEPES (pH 7.4), 20 mM MgCl2, 200 mM EDTA, 0.03% Triton-X 100, 0.3% Coating 3 reagent (Caliper Life Sciences, Inc.)).
2′-(or -3′)-O—(N-methylanthraniloyl)adenosine 5′-triphosphate (Mant-ATP, substrate) and Mant-ADP (reaction resultant product) were separated from each well after the reaction by a microchip type capillary electrophoresis apparatus 250 HTS (Caliper Life Sciences, Inc.). The reaction rate [(reaction resultant product peak height)/(reaction resultant product peak height+substrate peak height)×100(%)] was calculated from the ratio of the substrate peak height and reaction resultant product peak height obtained by fluorescence detection (excitation wavelength 355 nm, measurement wavelength 460 nm) and used as the index of GK activity.
3.5 As a control group, the reaction rate was calculated in the same manner as above except that “solution in 50% dimethyl sulfoxide (without test compound)” was used instead of “solution of test compound in 50% dimethyl sulfoxide”.
A concentration dependency curve of the test compound was drawn with the percentage obtained by dividing the reaction rate of the well added with the test compound (test compound addition group) by the reaction rate of the control group was taken as the GK activity value of the test compound, and the concentration of the test compound at the midpoint between the maximum activity value of the test compound addition group and the control group activity value is shown as EC50 value.

SMILES: CNC(=O)CC1CN=C(c2cc3cc(Oc4ccc(S(C)(=O)=O)cn4)cc(OC4CCOCC4)c3[nH]2)S1 (stereo not shown) [Example 17, N-Methyl-2-{2-[5-{[5-(methylsulfonyl)pyridin-2-yl]oxy}-7-(tetrahydro-2H-pyran-4-yloxy)-1H-indol-2-yl]-4,5-dihydro-1,3-thiazol-5-yl}acetamide]
- EC50 [1]: 90 nM
- melting point: 170 to 172 °C

SMILES: CS(=O)(=O)c1ccc(Oc2cc(OC3CCOCC3)c3[nH]c(C4=NCC(CC(=O)NC5CC5)S4)cc3c2)cn1 (stereo not shown) [Example 37, N-Cyclopropyl-2-{2-[5-{[6-(methylsulfonyl)pyridin-3-yl]oxy}-7-(tetrahydro-2H-pyran-4-yloxy)-1H-indol-2-yl]-4,5-dihydro-1,3-thiazol-5-yl}acetamide]
- EC50 [1]: 16 nM
- melting point: 175 to 176 °C

SMILES: CS(=O)(=O)Cc1ccc(Oc2cc(OC3CCOCC3)c3[nH]c(C4=NCC(CCO)S4)cc3c2)cn1 (stereo not shown) [Example 24, 2-{2-[5-({6-[(Methylsulfonyl)methyl]pyridin-3-yl}oxy)-7-(tetrahydro-2H-pyran-4-yloxy)-1H-indol-2-yl]-4,5-dihydro-1,3-thiazol-5-yl}ethanol]
- EC50 [1]: 19 nM

SMILES: CC(C)(O)CC1CN=C(c2cc3cc(Oc4ccc(S(C)(=O)=O)cc4)cc(OC4CCOCC4)c3[nH]2)S1 (stereo not shown) [Example 3, 2-Methyl-1-(2-{5-[4-(methylsulfonyl)phenoxy]-7-(tetrahydro-2H-pyran-4-yloxy)-1H-indol-2-yl}-4,5-dihydro-1,3-thiazol-5-yl)propan-2-ol]
- EC50 [1]: 15 nM
- melting point: 163 to 164 °C

SMILES: CS(=O)(=O)c1ccc(Oc2ccc3[nH]c(C4=NCC(CC(=O)NCC(F)(F)F)S4)cc3c2)cn1 (stereo not shown) [Example 56, 2-[2-(5-{[6-(Methylsulfonyl)pyridin-3-yl]oxy}-1H-indol-2-yl)-4,5-dihydro-1,3-thiazol-5-yl]-N-(2,2,2-trifluoroethyl)acetamide]
- EC50 [1]: 73 nM
- melting point: 234 to 235 °C

SMILES: CNC(=O)CC1CN=C(c2cc3cc(Oc4ccc(S(C)(=O)=O)nc4)cc(OC4CCOCC4)c3[nH]2)S1 (single isomer, unassigned) [Example 35, N-Methyl-2-{2-[5-{[6-(methylsulfonyl)pyridin-3-yl]oxy}-7-(tetrahydro-2H-pyran-4-yloxy)-1H-indol-2-yl]-4,5-dihydro-1,3-thiazol-5-yl}acetamide]
- EC50 [1]: 31 nM

SMILES: CCNC(=O)CC1CN=C(c2cc3cc(Oc4ccc(S(C)(=O)=O)nc4)ccc3[nH]2)S1 (stereo not shown) [Example 54, N-Ethyl-2-[2-(5-{[6-(methylsulfonyl)pyridin-3-yl]oxy}-1H-indol-2-yl)-4,5-dihydro-1,3-thiazol-5-yl]acetamide]
- EC50 [1]: 120 nM
- melting point: 216 to 217 °C

SMILES: CCc1cc(Oc2ccc(S(C)(=O)=O)nc2)cc2cc(C3=NCC(CC(=O)N4CC[S+]([O-])CC4)S3)[nH]c12 (stereo not shown) [Example 82, 7-Ethyl-5-{[6-(methylsulfonyl)pyridin-3-yl]oxy}-2-{5-[2-(1-oxidothiomorpholin-4-yl)-2-oxoethyl]-4,5-dihydro-1,3-thiazol-2-yl}-1H-indole]
- EC50 [1]: 18 nM
- melting point: 194 to 196 °C

SMILES: CNC(=O)CC1CN=C(c2cc3cc(Oc4ccc(S(C)(=O)=O)nc4)ccc3[nH]2)S1 (stereo not shown) [Example 53, N-Methyl-2-[2-(5-{[6-(methylsulfonyl)pyridin-3-yl]oxy}-1H-indol-2-yl)-4,5-dihydro-1,3-thiazol-5-yl]acetamide]
- EC50 [1]: 130 nM
- melting point: 150 to 152 °C

SMILES: CCc1cc(Oc2ccc(S(C)(=O)=O)nc2)cc2cc(C3=NCC(CC(N)=O)S3)[nH]c12 (stereo not shown) [Example 61, 2-[2-(7-Ethyl-5-{[6-(methylsulfonyl)pyridin-3-yl]oxy}-1H-indol-2-yl)-4,5-dihydro-1,3-thiazol-5-yl]acetamide]
- EC50 [1]: 16 nM
- melting point: 190 to 191 °C

SMILES: COCCNC(=O)CC1CN=C(c2cc3cc(Oc4ccc(S(C)(=O)=O)nc4)ccc3[nH]2)S1 (single isomer, unassigned) [Example 67, N-(2-Methoxyethyl)-2-[2-(5-{[6-(methylsulfonyl)pyridin-3-yl]oxy}-1H-indol-2-yl)-4,5-dihydro-1,3-thiazol-5-yl]acetamide]
- EC50 [1]: 89 nM

SMILES: CS(=O)(=O)c1ccc(Oc2cc(OC3CCOCC3)c3[nH]c(C4=NCC(CC(N)=O)S4)cc3c2)cn1 (single isomer, unassigned) [Example 32, 2-{2-[5-{[6-(Methylsulfonyl)pyridin-3-yl]oxy}-7-(tetrahydro-2H-pyran-4-yloxy)-1H-indol-2-yl]-4,5-dihydro-1,3-thiazol-5-yl}acetamide]
- EC50 [1]: 16 nM

SMILES: COCc1ccc(Oc2cc(OC3CCOCC3)c3[nH]c(C4=NCC(CCO)S4)cc3c2)cn1 (stereo not shown) [Example 7, 2-{2-[5-{[6-(Methoxymethyl)pyridin-3-yl]oxy}-7-(tetrahydro-2H-pyran-4-yloxy)-1H-indol-2-yl]-4,5-dihydro-1,3-thiazol-5-yl}ethanol]
- EC50 [1]: 14 nM

SMILES: COCCOCc1ccc(Oc2cc(OC3CCOCC3)c3[nH]c(C4=NCC(CCO)S4)cc3c2)cn1 (stereo not shown) [Example 20, 2-{2-[5-({6-[(2-Methoxyethoxy)methyl]pyridin-3-yl}oxy)-7-(tetrahydro-2H-pyran-4-yloxy)-1H-indol-2-yl]-4,5-dihydro-1,3-thiazol-5-yl}ethanol]
- EC50 [1]: 27 nM

SMILES: CN(C)C(=O)CC1CN=C(c2cc3cc(Oc4ccc(S(C)(=O)=O)nc4)ccc3[nH]2)S1 (single isomer, unassigned) [Example 65, N,N-Dimethyl-2-[2-(5-{[6-(methylsulfonyl)pyridin-3-yl]oxy}-1H-indol-2-yl)-4,5-dihydro-1,3-thiazol-5-yl]acetamide]
- EC50 [1]: 66 nM

SMILES: CS(=O)(=O)c1ccc(Oc2cc(OC3CCOCC3)c3[nH]c(C4=NCC(CC(N)=O)S4)cc3c2)cn1 (single isomer, unassigned) [Example 33, 2-{2-[5-{[6-(Methylsulfonyl)pyridin-3-yl]oxy}-7-(tetrahydro-2H-pyran-4-yloxy)-1H-indol-2-yl]-4,5-dihydro-1,3-thiazol-5-yl}acetamide]
- EC50 [1]: 26 nM

SMILES: CNC(=O)CC1CN=C(c2cc3cc(Oc4ccc(S(C)(=O)=O)nc4)cc(OC4CCOCC4)c3[nH]2)S1 (single isomer, unassigned) [Example 36, N-Methyl-2-{2-[5-{[6-(methylsulfonyl)pyridin-3-yl]oxy}-7-(tetrahydro-2H-pyran-4-yloxy)-1H-indol-2-yl]-4,5-dihydro-1,3-thiazol-5-yl}acetamide]
- EC50 [1]: 16 nM
